According to patent US6410566B1, “Cyclic amine derivatives and their use as drugs” (Teijin Limited, priority 2000, dated 2002):

Key:
[1] = molecular target: T1, binding of human MCP-1 to THP-1 cells (Homo sapiens, UniProt P41597); assay: Inhibition of binding of [125I]-labeled baculovirus expressed human MCP-1 to THP-1 cells (Method 2); details: Method 2, at 1 μM
T1 construct: endogenous in cells; host or cells: THP-1 (human monocytic leukemia cell line), whole cells
T1 sequence (P41597 1-360 isoform P41597-2): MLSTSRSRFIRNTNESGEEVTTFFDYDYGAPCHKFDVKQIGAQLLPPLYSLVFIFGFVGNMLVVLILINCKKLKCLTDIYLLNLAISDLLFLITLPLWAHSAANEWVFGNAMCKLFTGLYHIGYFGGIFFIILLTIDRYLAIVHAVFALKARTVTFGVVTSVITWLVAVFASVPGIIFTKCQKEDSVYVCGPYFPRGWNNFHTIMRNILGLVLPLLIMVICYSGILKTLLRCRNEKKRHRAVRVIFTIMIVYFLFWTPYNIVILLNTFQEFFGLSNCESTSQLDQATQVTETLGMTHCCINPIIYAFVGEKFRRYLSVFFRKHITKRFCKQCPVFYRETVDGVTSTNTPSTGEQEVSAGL
Excerpt: 1. Construction of recombinant baculovirus carrying the human MCP-1 gene
Based on the previously published human MCP-1 gene sequence (for example T. Yoshirnura et al., FEBS Lett., 1989, 244, 487-493), two synthetic DNA primers (5′-[…]-3′ and 5′-[…]-3′) flanked by restriction enzyme sites were used to amplify a DNA fragment from cDNA derived from human endothelial cells (purchased from Kurabow Co.); the amplified fragment was cut with the restriction enzymes (PstI and XbaI), ligated into a transfer vector pVL1393 (Invitrogen Co.), and the resulting vector was co-transfected along with infectious baculovirus into Sf-9 insect cells and the supernatant was plaque assayed to yield human MCP-1 gene baculovirus recombinant.
2. Synthesis of [^125I]-labeled human MCP-1 expressed in baculovirus
Using the method of K. Ishii et al. (Biochem Biophys Research Communications, 1995, 206, 955-961), 5×10^6 Sf-6 insect cells was infected with 5×10^7 PFU (plaque forming units) of the above human MCP-1 recombinant baculovirus and cultured for 7 days in Ex-Cell 401 medium. The culture supernatant was affinity purified using a heparin Sepharose column (Pharmacia Co.) and then further purified using reverse phase HPLC (Vydac C18 column) to prepare purified human MCP-1. The purified human MCP-1 was protein labeled by Amersham Co. using the Bolton Hunter method to yield [^125I]-labeled baculovirus expressed human MCP-1 (specific activity 2000 Ci/mmol).
3-2. Measurement of inhibition of binding of [^125I]-labeled baculovirus expressed human MCP-1 to THP-1 cells (Method 2)
Human monocytic leukemia cell line THP-1 was suspended in assay buffer (50 mM HEPES, pH 7.4, 1.0 mM CaCl2, 5.0% mM MgCl2, 0.5% BSA) to give a cell suspension of a concentration of 1×10^7 cells/mL. The test compound was diluted in the assay buffer and used as the test compound solution. [^125I]-labeled human MCP-1 described above was diluted in assay buffer to 1 mCi/mL and used as the labeled ligand solution. In a 96 well filter plate (Millipore Co.), 25 μL of test compound solution, 25 μL of labeled ligand solution and 50 μL of cell suspension were aliquoted into each well in this order, stirred (total reaction volume 100 μL), and incubated for one hour at 18° C.
After the reaction, the reaction solution was filtered, and the filter was washed twice with 200 μL of cold PBS (200 μL of cold PBS was added and then filtered). The filter was air-dried and 25 μL of liquid scintillator was added into each well. The radioactivity retained by the cells on the filter were measured using TopCount (Packard Instrument Co.).
To calculate the ability of test compound to inhibit binding of human MCP-1 to THP-1 cells, non-specific binding determined by adding 100 ng of unlabeled human MCP-1 in place of the test compound was subtracted, while the counts with no test compound added was taken as 100%.
Inhibition (%)={1−(A−B)/(C−B)}×100
(A, counts with test compound added; B, counts with 100 ng of unlabeled human MCP-1 added; C, counts with [^125I]-labeled human MCP-1 added).

[2] = molecular target: T1, binding of human MCP-1 to THP-1 cells; assay: Inhibition of binding of [125I]-labeled baculovirus expressed human MCP-1 to THP-1 cells (Method 1); details: for inhibition at 10 µM: Method 1, at 10 μM; for inhibition at 100 µM: Method 1, at 100 μM
Excerpt: Measurement of Inhibition of MCP-1 Binding to THP-1 Cells 1. Construction of recombinant baculovirus carrying the human MCP-1 gene Based on the previously published human MCP-1 gene sequence (for example T. Yoshirnura et al., FEBS Lett., 1989, 244, 487-493), two synthetic DNA primers ([NT] and [NT]) flanked by restriction enzyme sites were used to amplify a DNA fragment from cDNA derived from human endothelial cells (purchased from Kurabow Co.); the amplified fragment was cut with the restriction enzymes (PstI and XbaI), ligated into a transfer vector pVL1393 (Invitrogen Co.), and the resulting vector was co-transfected along with infectious baculovirus into Sf-9 insect cells and the supernatant was plaque assayed to yield human MCP-1 gene baculovirus recombinant. […] Using the method of K. Ishii et al. […] The culture supernatant was affinity purified using a heparin Sepharose column (Pharmacia Co.) and then further purified using reverse phase HPLC (Vydac C18 column) to prepare purified human MCP-1. […] 3-1. […] The test. compound was diluted in the assay buffer and used as the test compound solution. [^125I]-labeled human MCP-1 described above was diluted in assay buffer to 1 mCi/mL and used as the labeled ligand solution. In a 96 well filter plate (Millipore Co.), 25 μL of test compound solution, 25 μL of labeled ligand solution and 50 μL of cell suspension were aliquoted into each well in this order, stirred (total reaction volume 100 μL), and incubated for one hour at 18° C. After the reaction, the reaction solution was filtered, and the filter was washed twice with 200 μL of cold PBS (200 μL of cold PBS was added and then filtered). The filter was air-dried and 25 μL of liquid sciatillator was added into each well. The radioactivity retained by the cells on the filter were measured using TopCount (Packard Instrument Co.). To calculate the ability of test compound to inhibit binding of human MCP-1 to THP-1 cells, non-specific binding determined by adding 100 ng of unlabeled human MCP-1 in place of the test compound was subtracted, while the counts with no test compound added was taken as 100%. Inhibition (%)=(1-(A-B)/(C-B))×100 (A, counts with test compound added; B, counts with 100 ng of unlabeled human MCP-1 added; C, counts with [^125I]-labeled human MCP-1 added).

inhibition at 1 µM [1] [%] | Compound | further results
> 80 | Nc1cc(CN2CC[C@@H](NC(=O)CNC(=O)c3cc(C(F)(F)F)ccc3N)C2)ccc1O [Compound No. 2187, (R)-1-(3-Amino-4-hydroxybenzyl)3-[{N-(2Amino-5-trifluoromethylbenzoyl)glycyl}amino]pyrrolidine] | 
20 to 50 | CCOc1ccc(CN2CCC(CNC(=O)CNC(=O)c3cc(Cl)ccc3N)CC2)cc1 [Compound No. 1429, 4-[{-(2-Amino-5-chlorobenzoyl)glycyl}aminomethyl]-1-(4-ethoxybenzyl)piperidine] | 
> 80 | CN(C)c1cc(CN2CC[C@@H](NC(=O)CNC(=O)c3cc(C(F)(F)F)ccc3N)C2)ccc1Cl [Compound No. 2133, (R)-3-[{N-(2-Amino-5-trifluoromethylbenzoyl)glycyl}amino]-1-{4-chloro-3-(dimethylamino)benzyl}pyrrolidine] | 
50 to 80 | CC(C)c1ccc(CN2CCC(CNC(=O)CNC(=O)c3cc(OC(F)(F)F)ccc3N)CC2)cc1 [Compound No. 1903, 4-[{N-(2-Amino-5-trifluoromethoxybenzoyl)glycyl}aminomethyl]-1-(4-isopropylbenzyl)piperidine] | 
> 80 | Nc1cc2c(cc1CN1CC[C@@H](NC(=O)CNC(=O)c3cc(C(F)(F)F)ccc3N)C1)OCO2 [Compound No. 2127, (R)-1-(2-Amino-4,5-methylenedioxybenzyl)-3-[{N-(2-amino-5-trifluoromethylbenzoyl)glycyl}amino]pyrrolidine] | 
20 to 50 | CS(=O)(=O)Nc1ccc(Br)cc1C(=O)NCC(=O)NCC1CCN(Cc2ccc(Cl)cc2)CC1 [Compound No. 1581, 4-[{N-(5-Bromo-2-(methylsulfonylamino)benzoyl)glycyl}aminomethyl]-1-(4-chlorobenzyl)piperidine] | 
20 to 50 | Nc1ccc(Cl)cc1C(=O)NCC(=O)NCC1CCN(Cc2ccc(SC(F)(F)F)cc2)CC1 [Compound No. 1616, 4-[{N-(2-Amino-5-chlorobenzoyl)glycyl}aminomethyl]-1-{4-(trifluoromethylthio)benzyl}piperidine] | 

Continued, compound first:

Compound | inhibition at 1 µM [1] [%] | further results
Cc1ccc(C(=O)NCC(=O)N[C@@H]2CCN(Cc3ccc(Cl)cc3)C2)cc1Br [Compound No. 1098, (R)-1-(4-Chlorobenzyl)-3-[{N-(3-bromo-4-methylbenzoyl)glycyl}amino]pyrrolidine] | 20 to 50 | 
Nc1ccc(CN2CCC(CNC(=O)CNC(=O)c3cccc(C(F)(F)F)c3)CC2)cc1 [Compound No. 516, 1-(4-Aminobenzyl)-4-[{N-(3-(trifluoromethyl)benzoyl)glycyl}aminomethyl]piperidine] |  | inhibition at 10 µM [2]: 20 to 50%
CCOc1ccc(CN2CCC(CNC(=O)CNC(=O)c3cc(F)c(F)cc3N)CC2)cc1OCC [Compound No. 2065, 4-[{N-(2-amino-4,5-difluorobenzoyl)glycyl}aminomethyl]-1-(3,4-diethoxybenzyl)piperidine] | 20 to 50 | 
Nc1ccc(OC(F)(F)F)cc1C(=O)NCC(=O)N[C@@H]1CCN(Cc2ccc(Cl)cc2Cl)C1 [Compound No. 1905, (R)-3-[{N-(2-Amino-5-(trifluoromethoxy)benzoyl)glycyl}amino]-1-(2,4-dichlorobenzyl)pyrrolidine] | 50 to 80 | 
O=C(CNC(=O)c1cccc(C(F)(F)F)c1)N[C@H]1CCN(Cc2ccccc2)C1 [Compound No. 239, (S)-1-Benzyl-3-[N-{3-(trifluoromethyl)benzoyl}glycyl]aminopyrrolidine] |  | inhibition at 10 µM [2]: 20 to 50%
O=C(CNC(=O)c1cccc(C(F)(F)F)c1)NCC1CCN(Cc2ccc(NC(=O)c3ccccc3)cc2)CC1 [Compound No. 519, 1-{4-(Benzoylamino)benzyl}-4-[{N-(3-(trifluoromethyl)benzoyl)glycyl}aminomethyl]piperidine] |  | inhibition at 10 µM [2]: 20 to 50%
Cc1cccc(C(=O)NCC(=O)NC2CCCN(Cc3ccc(Cl)cc3)C2)c1 (stereo not drawn) [Compound No. 355, 1-(4-Chlorobenzyl)-3-[{N-(3-methylbenzoyl)glycyl}amino]piperidine] |  | inhibition at 100 µM [2]: > 80%
O=C(CNC(=O)c1cc(C(F)(F)F)cc(C(F)(F)F)c1)N[C@H]1CCN(Cc2ccc(Cl)cc2)C1 [compound 5, (S)-3-[N-{3,5-Bis (trifluoromethyl)benzoyl}glycyl]amino-1-(4-chlorobenzyl)pyrrolidine] |  | inhibition at 100 µM [2]: > 80%
COc1ccc(CN2CCC(CNC(=O)CNC(=O)c3cc(F)c(F)cc3N)CC2)cc1N [Compound No. 2113, 4-[{N-(2-amino-4,5-difluorobenzoyl)glycyl}aminomethyl]-1-(3-amino-4-methoxybenzyl)piperidine] | > 80 | 
O=C(CNC(=O)c1cccc(C(F)(F)F)c1)NCC1CCN(Cc2ccc(Cl)cc2)C1 (stereo not drawn) [Compound No. 1463, 3-[{N-(3-Trifluoromethylbenzoyl)glycyl}aminomethyl]-1-(4-chlorobenzyl)pyrrolidine] | 20 to 50 | 
Nc1ccc(C(F)(F)F)cc1C(=O)NCC(=O)N[C@@H]1CCN(Cc2ccc(Br)cc2F)C1 [Compound No. 2120, (R)-3-[{N-(2-Amino-5-trifluoromethylbenzoyl)glycyl}amino]-1-(4-bromo-2-fluorobenzyl)pyrrolidine] | > 80 | 
Nc1cc(F)c(F)cc1C(=O)NCC(=O)NCC1CCN(Cc2ccc(Cl)cc2)C1 (stereo not drawn) [Compound No. 1506, 3-[{N-(2-Amino-4,5-difluorobenzoyl)glycyl}aminomethyl]-1-(4-chlorobenzyl)pyrrolidine] | 50 to 80 | 
Nc1ccc(OC(F)(F)F)cc1C(=O)NCC(=O)NCC1CCN(Cc2ccc(Br)cc2)CC1 [Compound No. 1910, 4-[{N-(2-Amino-5-trifluoromethoxybenzoyl)glycyl}aminomethyl]-1-(4-bromobenzyl)piperidine] | 50 to 80 | 
CS(=O)(=O)N(c1ccc(Br)cc1C(=O)NCC(=O)NCC1CCN(Cc2ccc(Cl)cc2)CC1)S(C)(=O)=O [Compound No. 1582, 4-[{N-(5-Bromo-2-(bis(methylsulfonyl)amino)benzoyl)glycyl}aminomethyl]-1-(4-chlorobenzyl)piperidine] | 20 to 50 | 
